Test results: patent US20050085524A1, “Pyrazolecarboxamides, intermediates therefor and pest control agent comprising the same as active ingredients” (NIHON NOHYAKU CO,. LTD., priority 2001, published 2005)

Key:
Type in all cases: in vivo
Erypsiphe graminis = experiment: Fungicidal and bactericidal effect on wheat powdery mildew (spray on potted wheat, then inoculation); settings: 500 ppm, spray on wheat (Norin No.61), diseased leaf area after 7 to 10 days
Experimental: Compound (III) disclosed in JP-A-64-25763, tebufenpyrade and various compounds in accordance with the present invention were individually prepared into preparations in the same manner as in Formulation 3 The resulting preparations were diluted to given concentrations and sprayed on the stems and leave of a wheat plant (species: Norin No.61) at the one-leaf to 2-leaf stage as grown in a pot of a 6-cm diameter, at a ratio of 10-ml volume per one pot. After drying the chemical preparations in air, the wheat plant was exposed to the spore collected from wheat leave afflicted with Erypsiphe graminis as the microorganism causing wheat powdery mildew, for inoculation. Then, the plant was left to stand alone in a green house for 7 to 10 days.
Evaluation was carried out follows. The ratio of the diseased area of each leaf was examined to calculate the control ratio according to the following formula. The results are shown in Table 3 (in the table, Compound Nos. correspond to Compound Nos. in Table-1.) • Control ratio (%) • =[(mean ratio of diseased areas in non-treated lot) • −(mean ratio of diseased areas in treated lot)]× • ×100
/ (mean ratio of diseased areas in non-treated lot)

Puccinia recondita = experiment: Fungicidal and bactericidal effect on wheat rust (spray on potted wheat seedling, then inoculation); settings: 500 ppm, spray on wheat seedling (Norin No.61), diseased leaf area after 7 days
Experimental: Compound (III) disclosed in JP-A-64-25763 and various compounds in accordance with the present invention were individually prepared into preparations in the same manner as in Preparation 3. The resulting preparations were diluted to given concentrations and sprayed on the stems and leave of a wheat seedling (species: Norin No.61) at the one-leaf to 2-leaf stage as grown in a pot of a 6-cm diameter, at a ratio of 10-ml volume per one pot. After drying the chemical preparations in air, a spore suspension prepared by grinding the spore collected from wheat leave afflicted with Puccinia recondita as the microorganism causing wheat rust was sprayed on the wheat plant, for inoculation. Then, the plant was left to stand alone in a moist chamber at 22° C. for 15 hours. Subsequently, the plant was left to stand in a water pool in a green house for 7 days.
Evaluation was carried out by examining the ratio of the diseased area of each leaf to calculate the control ratio by the same method as in Test Example 1.
The results are shown in Table 4 (in the table, Compound Nos. correspond to Compound Nos, in Table-1.)

[1] = system: 3rd instar Spodoptera litura larvae; experiment: Effect on larvae of Spodoptera litura (cabbage leaf dip); settings: foliar, 120 h, cabbage leaf immersed, 25° C., five days, agonizing insect counted as 0.5 death, read-out: Insecticide Activity (%)
Experimental: Compound (III) disclosed in JP-A-64-25763 and various compounds in accordance with the present invention were individually prepared into insecticide preparations according to the formulation of Formulation Example 1. The resulting insecticides of the present invention (hydrates) were diluted with water, where chopped cabbage leave (a diameter of 6 cm) were then immersed for one minute. After immersion and subsequent drying in air, the cabbage leave were placed in a plastic cup (inner diameter of 7 cm), where five larvae each of 3rd instar Spodoptera litura were left (twice in duplicate per one concentration). The plastic cup was kept in a thermostat at 25° C. Five days after the larvae were left in the plastic cup, the death and agony of these larvae were examined, to calculate the insecticide activity (%) while an agonizing insect was counted as 0.5 insect death. The results are shown in Table 5 (in the table, Compound Nos. correspond to Compound Nos. in Table-1.)

[2] = system: female adult Tetranychus urticae Koch; experiment: Miticidal effect on adult Tetranychus urticae Koch (Phaseolus leaf dip); settings: leaf immersion, 25° C., five days after treatment
Experimental: The stem part of a Phaseolus seedling with one fresh first leaf remaining thereon was inserted in a test tube (a volume of 50 ml) containing water, where 15 female adult Tetranychus urticae Koch per one leaf was then inoculated. […] Five days after the treatment, the number of the female adult Tetranychus urticae Koch was counted on the Phaseolus leave, to calculate the adult death ratio (%) based on the above results. The results are shown in Table-6 (Compound Nos. in the table below correspond to Compound Nos. in Table-1).

Compound | Control Ratio (%) (Erypsiphe graminis) | Control Ratio (%) (Puccinia recondita) | Adult death ratio (%) ([2]; 500 ppm) | also measured
Cc1nn(C)c(C(=O)NC(C)c2ccc(-c3ccccc3)cc2)c1Br (stereo not shown) [Compound (III)] | 0% | 0% | 15% | inhibition at 500 ppm [1]: 20%
CCCCCc1ccc(-c2ccc(CNC(=O)c3cc(CC)nn3C)cc2)cc1 [Compound No. 11] | – | – | 100% | –
CCc1cc(C(=O)NCc2ccc(-c3ccc(OC(F)F)cc3)cc2)n(C)n1 [Compound No. 30, N-[4-(4-Difluoromethoxyphenyl)benzyl]-1-methyl-3-ethylpyrazole-5-carboxamide] | 100% | 100% | 100% | –
CCCCCCCc1ccc(-c2ccc(CNC(=O)c3cc(CC)nn3C)cc2)cc1 [compound 13] | 100% | – | – | –
CCc1cc(C(=O)NCc2ccc(-c3ccc(OC(C)C)cc3)cc2)n(C)n1 [compound 25] | 100% | 100% | – | –
Cn1nc2c(c1C(=O)NCc1ccc(-c3ccc(OC(F)(F)F)cc3)cc1)CCCC2 [compound 106] | – | – | 100% | –
CCc1nn(C)c(C(=O)NCc2ccc(C(C)(C)C)cc2)c1Cl [tebufenpyrade] | 77% | – | – | Adult death ratio (%) ([2]; 0.8 ppm): 0%; Adult death ratio (%) ([2]; 3.1 ppm): 80%; Adult death ratio (%) ([2]; 12.5 ppm): 100%
